# Legend:
# κ opioid receptor = κ opioid receptor (Homo sapiens (Human), UniProt P41145); assay: κ-opioid receptor [35S]GTPγS functional assay, U-2 OS cells; format: biochemical; conditions: for Emax: relative to U69,593, U-2 OS cells
# Description: κ-Opioid Receptor Functional Assay Procedures: Functional [^35S]GTPγS binding assays were conducted as follows. κ opioid receptor membrane solution was prepared by sequentially adding final concentrations of 0.026 μg/μl κ membrane protein (in-house), 10 μg/mL saponin, 3 μM GDP and 0.20 nM [^35S]GTPγS to binding buffer (100 mM NaCl, 10 mM MgCl2, 20 mM HEPES, pH 7.4) on ice. The prepared membrane solution (190 μl/well) was transferred to 96-shallow well polypropylene plates containing 10 μl of 20× concentrated stock solutions of agonist prepared in DMSO. Plates were incubated for 30 min at a temperature of about 25° C. with shaking. Reactions were terminated by rapid filtration onto 96-well Unifilter GF/B filter plates (Perkin Elmer, Shelton, Conn.) using a 96-well tissue harvester (Packard) and followed by three filtration washes with 200 μl ice-cold binding buffer (10 mM NaH2PO4, 10 mM Na2HPO4, pH 7.4). Filter plates were subsequently dried at 50° C. for 2-3 hours. Fifty μl/well scintillation cocktail (Perkin Elmer, Shelton, Conn.) was added and plates were counted in a Packard Top-Count for 1 min/well.
# κ-Opioid Receptor Functional Data: κ GTP EC50 is the concentration of a compound providing 50% of the maximal response for the compound at a κ receptor.
# κ GTP Emax (%) is the maximal effect elicited by a compound relative to the effect elicited by U69,593.
# (§1) The following TABLE 3 provides results on the activity response of certain Compounds of the Invention at the μ- and κ-opioid receptors determined as described above using U-2 OS cells.
# μ-opioid receptor = μ-opioid receptor (Homo sapiens (Human), UniProt P35372); assay: μ-opioid receptor [35S]GTPγS functional assay, U-2 OS cells; format: biochemical; conditions: for Emax: relative to DAMGO, U-2 OS cells
# Description: μ-Opioid Receptor Functional Assay Procedures: [^35S]GTPγS functional assays were conducted using freshly thawed μ-receptor membranes prepared in-house from a cell line expressing recombinant μ opioid receptor in a HEK-293, CHO or U-2 OS cell background, or purchased from a commercial source (Perkin Elmer, Shelton, Conn.; or DiscovRx, Fremont, Calif.). Assay reactions were prepared by sequentially adding the following reagents to binding buffer (100 mM NaCl, 10 mM MgCl2, 20 mM HEPES, pH 7.4) on ice (final concentrations indicated): membrane protein (0.026 mg/mL), saponin ([…]), GDP ([…]) and [^35S]GTPγS (0.20 nM; Perkin Elmer, Shelton, Conn.). The prepared membrane solution (190 μl/well) was transferred to 96-shallow well polypropylene plates containing 10 μl of 20× concentrated stock solutions of the agonist [D-Ala^2, N-methyl-Phe^4 Gly-ol^5]-enkephalin (DAMGO) prepared in dimethyl sulfoxide (DMSO). Plates were incubated for 30 min at about 25° C. with shaking. Reactions were terminated by rapid filtration onto 96-well Unifilter GF/B filter plates (Perkin Elmer, Shelton, Conn.) using a 96-well tissue harvester (Perkin Elmer, Shelton, Conn.) followed by three filtration washes with 200 μl of ice-cold wash buffer (10 mM NaH2PO4, 10 mM Na2HPO4, pH 7.4). Filter plates were subsequently dried at 50° C. for 2-3 hours. BetaScint scintillation cocktail (Perkin Elmer, Shelton, Conn.) was added (50 μl/well) and plates were counted using a Packard Top-Count for 1 min/well. Data were analyzed using the sigmoidal dose-response curve fitting functions in GraphPad PRISM v. 3.0, or an in-house function for non-linear, sigmoidal dose-response curve-fitting.
# μ-Opioid Receptor Functional Data: μ GTP EC50 is the concentration of a compound providing 50% of the maximal response for the compound at a μ-opioid receptor.
# μ GTP Emax (%) is the maximal effect elicited by a compound relative to the effect elicited by DAMGO, a standard μ agonist. Generally, the μ GTP Emax (%) value measures the efficacy of a compound to treat or prevent pain or other Conditions.
# as §1
SMILES,EC50 (κ opioid receptor),Emax (κ opioid receptor),EC50 (μ-opioid receptor),Emax (μ-opioid receptor)
O=C1NC(=O)[C@@]2(CC[C@@]3(O)[C@H]4Cc5ccc(O)cc5[C@@]3(CCN4CCF)C2)N1 [Compound 30],38.2 ± 12 nM,99.7 ± 1.67%,102 ± 30.2 nM,56.7 ± 4.33%
"CCN1C(=O)N[C@]2(CC[C@@]3(O)[C@H]4Cc5ccc(O)cc5[C@@]3(CCN4CC)C2)C1=O [Compound 31, (4bR,4′S,8aS,9R)-1′,11-diethyl-3,8a-dihydroxy-5,7,8,8a,9,10-hexahydrospiro[9,4b-(epiminoethano)phenanthrene-6,4′-imidazolidine]-2′,5′-dione]",445 ± 197 nM,102 ± 4.48%,1510 ± 309 nM,88.9 ± 0.94%
"O=C1NC(=O)[C@@]2(CC[C@@]3(O)[C@H]4Cc5ccc(O)cc5[C@@]3(CCN4CC(F)(F)F)C2)N1 [Compound 32, (4bR,4′S,8aS,9R)-3,8a-dihydroxy-11-(2,2,2-trifluoroethyl)-5,7,8,8a,9,10-hexahydrospiro[9,4b-(epiminoethano)phenanthrene-6,4′-imidazolidine]-2′,5′-dione]",523 ± 180 nM,104 ± 1.2%,> 20000 nM,1.5%
"O=C1NC(=O)[C@@]2(CC[C@@]3(O)[C@H]4Cc5ccc(O)cc5[C@@]3(CCN4CCC(F)(F)F)C2)N1 [Compound 33, (4bR,4′S,8aS,9R)-3,8a-dihydroxy-11-(3,3,3-trifluoropropyl)-5,7,8,8a,9,10-hexahydrospiro[9,4b-(epiminoethano)phenanthrene-6,4′-imidazolidine]-2′,5′-dione]",393 ± 13.5 nM,98.3 ± 1.45%,272 ± 18 nM,39.7 ± 1.86%
"O=C1NC(=O)[C@@]2(CC[C@@]3(O)[C@H]4Cc5ccc(O)cc5[C@@]3(CCN4CCCC(F)(F)F)C2)N1 [Compound 34, (4bR,4′S,8aS,9R)-3,8a-dihydroxy-11-(4,4,4-trifluorobutyl)-5,7,8,8a,9,10-hexahydrospiro[9,4b-(epiminoethano)phenanthrene-6,4′-imidazolidine]-2′,5′-dione]",2240 ± 120 nM,87.7 ± 3.28%,869 ± 131 nM,47 ± 2.08%
"O=C1NC(=O)[C@@]2(CC[C@@]3(O)[C@H]4Cc5ccc(O)cc5[C@@]3(CCN4CCc3ccccc3)C2)N1 [Compound 35, (4bR,4′S,8aS,9R)-3,8a-dihydroxy-11-phenethyl-5,7,8,8a,9,10-hexahydrospiro[9,4b-(epiminoethano)phenanthrene-6,4′-imidazolidine]-2′,5′-dione]",270 ± 44.1 nM,84 ± 1.53%,1.23 ± 0.093 nM,104 ± 3.51%
"O=C1NC(=O)[C@@]2(CC[C@@]3(O)[C@H]4Cc5ccc(O)cc5[C@@]3(CCN4CCCc3ccccc3)C2)N1 [Compound 36, (4bR,4′S,8aS,9R)-3,8a-dihydroxy-11-(3-phenylpropyl)-5,7,8,8a,9,10-hexahydrospiro[9,4b-(epiminoethano)phenanthrene-6,4′-imidazolidine]-2′,5′-dione]",2500 ± 277 nM,84.3 ± 2.6%,442 ± 21.2 nM,77.7 ± 3.53%
"C=C(C)CCN1CC[C@]23C[C@]4(CC[C@@]2(O)[C@H]1Cc1ccc(O)cc13)NC(=O)NC4=O [Compound 37, (4bR,4′S,8aS,9R)-3,8a-dihydroxy-11-(3-methylbut-3-en-1-yl)-5,7,8,8a,9,10-hexahydrospiro[9,4b-(epiminoethano)phenanthrene-6,4′-imidazolidine]-2′,5′-dione]",33.5 ± 9.67 nM,101 ± 1.76%,18.7 ± 2.53 nM,92 ± 5%
"O=C1NC(=O)[C@@]2(CC[C@@]3(O)[C@H]4Cc5ccc(O)cc5[C@@]3(CCN4CC(F)F)C2)N1 [Compound 38, (4bR,4′S,8aS,9R)-11-(2,2-difluoroethyl)-3,8a-dihydroxy-5,7,8,8a,9,10-hexahydrospiro[9,4b-(epiminoethano)phenanthrene-6,4′-imidazolidine]-2′,5′-dione]",441 ± 144 nM,99 ± 3.51%,> 20000 nM,12 ± 1%
"CCN1C(=O)N[C@]2(CC[C@@]3(O)[C@H]4Cc5ccc(O)cc5[C@@]3(CCN4CC3CC3)C2)C1=O [Compound 45, (4S,4b′R,8a′S,9′R)-11′-(cyclopropylmethyl)-1-ethyl-3′,8a′-dihydroxy-8′,8a′,9′,10′-tetrahydro-5′H,7′H-spiro[imidazolidine-4,6′-[9,4b](epiminoethano)phenantrene]-2,5-dione]",4.34 ± 0.74 nM,96.3 ± 1.33%,6.47 ± 0.69 nM,45.9 ± 3.04%
"CCN1C(=O)N(CC)[C@]2(CC[C@@]3(O)[C@H]4Cc5ccc(O)cc5[C@@]3(CCN4CC3CC3)C2)C1=O [Compound 46, (4S,4b′R,8a′S,9′R)-11′-(cyclopropylmethyl)-1,3-diethyl-3′,8a′-dihydroxy-8′,8a′,9′,10′-tetrahydro-5′H,7′H-spiro[imidazolidine-4,6′-[9,4b](epiminoethano)phenantrene]-2,5-dione]",1.57 ± 0.19 nM,96.7 ± 3.67%,1.74 ± 0.22 nM,10.7 ± 0.33%
"O=C1N[C@]2(CC[C@@]3(O)[C@H]4Cc5ccc(O)cc5[C@@]3(CCN4CC3CC3)C2)C(=O)N1Cc1ccc(O)cc1 [Compound 47, (4S,4b′R,8a′S,9′R)-11′-(cyclopropylmethyl)-3′,8a′-dihydroxy-1-(4-hydroxybenzyl)-8′,8a′,9′,10′-tetrahydro-5′H,7′H-spiro[imidazolidine-4,6′-[9,4b](epiminoethano)-phenantrene]-2,5-dione]",1.21 ± 0.11 nM,104 ± 3.67%,4.66 ± 0.89 nM,49 ± 1.53%
"CCN1C(=O)N(Cc2ccc(O)cc2)C(=O)[C@@]12CC[C@@]1(O)[C@H]3Cc4ccc(O)cc4[C@@]1(CCN3CC1CC1)C2 [Compound 48, (4S,4b′R,8a′S,9′R)-11′-(cyclopropylmethyl)-3-ethyl-3′,8a′-dihydroxy-1-(4-hydroxybenzyl)-8′,8a′,9′,10′-tetrahydro-5′H,7′H-spiro[imidazolidin-4,6′-[9,4b](epiminoethano)-phenantrene]-2,5-dione]",2.61 ± 0.3 nM,105 ± 1.2%,0.82 ± 0.093 nM,12 ± 0.58%
"CCN1C(=O)N[C@]2(CC[C@@]3(O)[C@H]4Cc5ccc(O)cc5[C@@]3(CCN4C)C2)C1=O [Compound 61, (4S,4b′R,8a′S,9′R)-1-ethyl-3′,8a′-dihydroxy-11′-methyl-8′,8a′,9′,10′-tetrahydro-5′H,7′H-spiro[imidazolidine-4,6′-[9,4b](epiminoethano)phenantrene]-2,5-dione]",2480 ± 249 nM,109 ± 6.06%,39.1 ± 4.82 nM,103.3 ± 0.88%
"CCN1C(=O)N(CC)[C@]2(CC[C@@]3(O)[C@H]4Cc5ccc(O)cc5[C@@]3(CCN4C)C2)C1=O [Compound 62, (4S,4b′R,8a′S,9′R)-1,3-diethyl-3′,8a′-dihydroxy-11′-methyl-8′,8a′,9′,10′-tetrahydro-5′H,7′H-spiro[imidazolidine-4,6′-[9,4b](epiminoethano)phenantrene]-2,5-dione]",711 ± 37.8 nM,108 ± 2.52%,75.2 ± 3.36 nM,78 ± 0.58%
"O=C1NC(=O)[C@@]2(CC[C@@]3(O)[C@H]4Cc5ccc(O)cc5[C@@]3(CCN4CC3CC3)C2)N1CC(F)(F)F [Compound 64, (4S,4b′R,8a′S,9′R)-11′-(cyclopropylmethyl)-3′,8a′-dihydroxy-3-(2,2,2-trifluoroethyl)-8′,8a′,9′,10′-tetrahydro-5′H,7′H-spiro[imidazolidine-4,6′-[9,4b](epiminoethano)-phenantrene]-2,5-dione]",22.2 ± 1.46 nM,106 ± 2.85%,2.76 ± 0.5 nM,14 ± 0.58%

# From US8987287B2, “Spirocyclic morphinans and their use” (Purdue Pharma L.P., priority 2012, dated 2015)
